Reference: patent publication US20250197372A1 (priority 2020, published 2025)

Experiments:
Format in all cases: biochemical
[1] = biological target: T1, recombinant human GBA (beta-glucocerebrosidase) (Homo sapiens, UniProt P04062); assay: Beta-glucocerebrosidase (GBA, glucosylceramidase) assay (4-methylumbelliferyl-beta-D-pyranoside substrate, fluorescence)
T1 sequence (P04062 40-536): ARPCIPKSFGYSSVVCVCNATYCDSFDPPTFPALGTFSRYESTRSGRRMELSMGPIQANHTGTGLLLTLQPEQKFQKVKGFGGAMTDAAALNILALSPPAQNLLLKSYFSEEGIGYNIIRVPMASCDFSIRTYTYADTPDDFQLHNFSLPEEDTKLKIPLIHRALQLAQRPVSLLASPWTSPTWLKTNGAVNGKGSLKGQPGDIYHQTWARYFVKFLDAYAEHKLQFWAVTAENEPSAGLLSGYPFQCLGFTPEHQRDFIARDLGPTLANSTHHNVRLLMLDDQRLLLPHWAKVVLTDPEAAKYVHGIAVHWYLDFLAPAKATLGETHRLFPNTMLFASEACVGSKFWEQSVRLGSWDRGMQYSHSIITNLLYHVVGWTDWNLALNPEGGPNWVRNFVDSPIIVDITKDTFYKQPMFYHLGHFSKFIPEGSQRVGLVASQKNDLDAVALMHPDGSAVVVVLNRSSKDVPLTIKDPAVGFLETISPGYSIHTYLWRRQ
Method in brief: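 IC50 by four-parameter fit of percent inhibition, with product fluorescence (365/440 nm) read after a glycine/NaOH pH 10 stop. Compound and commercial recombinant human enzyme were incubated 60 min at 37 °C before a further 60 min at 37 °C with 4-methylumbelliferyl-beta-D-pyranoside substrate.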

[2] = biological target: T2, recombinant alpha-glucosidase II (murine full-length glucosidase II, alpha and beta subunits, Glu 2) (Mus musculus, UniProt Q8BHN3); assay: Alpha-glucosidase II assay (4-methylumbelliferyl-alpha-D-pyranoside substrate, fluorescence); settings: Glucosidase 2; read-out: Glu2 IC50
T2 construct: made in house; host or cells: HEK-293T cells transduced with BacMam viruses (75% alpha, 25% beta); protein harvested from culture supernatant

[3] = biological target: recombinant human GAA (acid alpha-glucosidase) (Homo sapiens, UniProt P10253); assay: Acid alpha-glucosidase (GAA) assay (4-methylumbelliferyl-alpha-D-pyranoside substrate, fluorescence)
Method in brief: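 IC50 from 4-PL curve fit of percent inhibition, based on fluorescence (365/440 nm) of released methylumbelliferone relative to uninhibited enzyme. Compound dilutions and human GAA incubated 60 min, 37 °C, before 20 min substrate reaction at 37 °C, quenched at pH 10.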

[4] = biological target: rat sucrase (partially purified alpha-glucosidase from intestinal rat powder) (Rattus norvegicus, UniProt P23739); assay: Intestinal alpha-glucosidase assay, sucrose substrate (Glucose GO Kit)
Method in brief: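 Partially purified alpha-glucosidase from rat intestinal powder was preincubated 60 min at 37 °C with serial compound dilutions, then given maltose or sucrose and incubated 30 min at 37 °C.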

rat sucrase (partially purified alpha-glucosidase from intestinal rat powder), sequence (P23739 whole entry): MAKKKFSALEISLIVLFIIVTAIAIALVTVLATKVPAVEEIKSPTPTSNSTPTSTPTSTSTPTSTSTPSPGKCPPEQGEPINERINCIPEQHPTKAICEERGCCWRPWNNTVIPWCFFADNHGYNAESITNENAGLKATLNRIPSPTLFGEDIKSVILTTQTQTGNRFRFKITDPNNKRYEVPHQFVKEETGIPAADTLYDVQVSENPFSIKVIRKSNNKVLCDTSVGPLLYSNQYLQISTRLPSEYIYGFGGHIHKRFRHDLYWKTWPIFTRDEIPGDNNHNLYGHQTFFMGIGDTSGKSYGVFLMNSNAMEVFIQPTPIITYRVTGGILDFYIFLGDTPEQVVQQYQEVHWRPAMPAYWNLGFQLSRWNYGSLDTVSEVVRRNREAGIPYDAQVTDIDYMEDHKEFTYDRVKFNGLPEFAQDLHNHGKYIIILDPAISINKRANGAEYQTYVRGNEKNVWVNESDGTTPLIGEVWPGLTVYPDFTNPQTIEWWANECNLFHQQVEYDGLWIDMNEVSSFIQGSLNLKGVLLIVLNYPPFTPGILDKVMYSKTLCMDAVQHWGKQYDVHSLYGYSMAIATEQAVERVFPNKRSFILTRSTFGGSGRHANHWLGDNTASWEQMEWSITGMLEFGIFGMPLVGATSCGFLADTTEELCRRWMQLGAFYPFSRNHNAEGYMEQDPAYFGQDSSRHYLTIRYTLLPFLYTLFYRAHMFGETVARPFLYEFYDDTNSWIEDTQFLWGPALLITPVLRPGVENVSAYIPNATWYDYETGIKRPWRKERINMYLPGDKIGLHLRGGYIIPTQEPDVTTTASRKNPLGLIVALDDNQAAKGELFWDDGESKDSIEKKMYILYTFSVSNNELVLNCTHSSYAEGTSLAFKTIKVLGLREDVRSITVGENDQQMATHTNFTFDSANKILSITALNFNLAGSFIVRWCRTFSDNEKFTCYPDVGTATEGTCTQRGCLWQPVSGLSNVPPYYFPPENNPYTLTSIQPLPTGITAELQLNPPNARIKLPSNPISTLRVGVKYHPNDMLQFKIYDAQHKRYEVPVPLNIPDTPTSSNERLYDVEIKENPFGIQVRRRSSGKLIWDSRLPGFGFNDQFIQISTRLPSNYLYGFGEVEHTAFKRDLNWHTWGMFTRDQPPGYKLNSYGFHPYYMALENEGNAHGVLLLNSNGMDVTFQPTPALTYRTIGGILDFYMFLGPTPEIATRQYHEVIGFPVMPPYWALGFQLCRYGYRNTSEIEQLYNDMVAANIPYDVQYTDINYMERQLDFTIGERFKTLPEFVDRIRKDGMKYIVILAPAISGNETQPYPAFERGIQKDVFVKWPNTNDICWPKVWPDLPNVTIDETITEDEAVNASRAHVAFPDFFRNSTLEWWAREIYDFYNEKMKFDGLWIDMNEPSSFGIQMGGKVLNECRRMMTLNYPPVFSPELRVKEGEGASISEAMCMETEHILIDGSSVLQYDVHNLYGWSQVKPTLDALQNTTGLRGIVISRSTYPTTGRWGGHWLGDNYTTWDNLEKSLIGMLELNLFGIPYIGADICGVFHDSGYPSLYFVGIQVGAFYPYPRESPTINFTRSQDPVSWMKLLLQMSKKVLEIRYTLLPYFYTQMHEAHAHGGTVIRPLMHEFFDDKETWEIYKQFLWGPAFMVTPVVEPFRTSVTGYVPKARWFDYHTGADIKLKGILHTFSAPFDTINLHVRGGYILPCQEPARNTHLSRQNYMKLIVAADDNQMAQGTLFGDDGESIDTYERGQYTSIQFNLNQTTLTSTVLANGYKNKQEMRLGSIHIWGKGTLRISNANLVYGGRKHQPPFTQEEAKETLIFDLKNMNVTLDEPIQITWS
T2 sequence (O08795 15-521): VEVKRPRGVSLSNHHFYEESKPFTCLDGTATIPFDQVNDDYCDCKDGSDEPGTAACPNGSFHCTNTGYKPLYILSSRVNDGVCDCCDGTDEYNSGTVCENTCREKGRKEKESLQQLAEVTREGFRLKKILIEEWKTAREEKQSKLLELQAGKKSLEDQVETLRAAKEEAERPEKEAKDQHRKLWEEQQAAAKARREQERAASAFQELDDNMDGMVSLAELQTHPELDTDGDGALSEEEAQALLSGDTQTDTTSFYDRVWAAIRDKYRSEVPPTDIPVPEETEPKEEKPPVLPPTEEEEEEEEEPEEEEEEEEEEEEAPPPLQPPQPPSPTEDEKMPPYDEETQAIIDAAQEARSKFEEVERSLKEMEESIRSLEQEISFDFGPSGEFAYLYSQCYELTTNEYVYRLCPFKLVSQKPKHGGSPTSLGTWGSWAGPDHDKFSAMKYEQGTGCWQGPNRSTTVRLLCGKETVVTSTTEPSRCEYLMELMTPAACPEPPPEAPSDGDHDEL
T2 sequence (Q8BHN3 33-944): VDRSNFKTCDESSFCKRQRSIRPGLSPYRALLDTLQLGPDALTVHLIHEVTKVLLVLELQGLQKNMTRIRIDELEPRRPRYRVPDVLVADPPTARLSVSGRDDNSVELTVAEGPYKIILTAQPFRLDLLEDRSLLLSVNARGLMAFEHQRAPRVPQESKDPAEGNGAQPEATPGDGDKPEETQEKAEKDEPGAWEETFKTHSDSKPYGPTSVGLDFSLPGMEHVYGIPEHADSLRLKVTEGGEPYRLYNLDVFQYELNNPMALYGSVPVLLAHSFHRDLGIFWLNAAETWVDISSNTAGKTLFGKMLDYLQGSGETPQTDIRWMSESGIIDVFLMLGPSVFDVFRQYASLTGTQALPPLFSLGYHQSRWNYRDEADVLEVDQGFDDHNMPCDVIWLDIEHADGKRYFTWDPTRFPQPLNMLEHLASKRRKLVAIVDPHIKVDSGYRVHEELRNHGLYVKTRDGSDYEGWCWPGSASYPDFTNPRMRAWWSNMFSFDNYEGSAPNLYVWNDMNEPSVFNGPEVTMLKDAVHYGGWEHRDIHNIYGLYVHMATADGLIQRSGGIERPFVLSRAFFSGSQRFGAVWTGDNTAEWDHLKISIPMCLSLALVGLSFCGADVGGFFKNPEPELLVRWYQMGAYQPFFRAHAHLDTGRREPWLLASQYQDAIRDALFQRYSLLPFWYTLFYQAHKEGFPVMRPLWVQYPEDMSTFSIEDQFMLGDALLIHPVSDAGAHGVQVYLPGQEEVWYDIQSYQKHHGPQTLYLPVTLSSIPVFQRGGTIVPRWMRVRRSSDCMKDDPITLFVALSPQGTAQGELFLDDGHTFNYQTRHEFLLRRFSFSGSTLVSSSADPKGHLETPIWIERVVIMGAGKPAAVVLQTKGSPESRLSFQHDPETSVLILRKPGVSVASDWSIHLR

Compound	IC50 [1] [µM]	IC50 [2] [nM]	IC50 [3] [nM]	IC50 [4] [nM]
Cc1cc(NCc2ccc(CN3C[C@H](O)[C@@H](O)[C@H](O)[C@H]3CO)cc2)cc(-c2ncco2)c1 [Compound 1315, (2R,3R,4R,5S)-2-(hydroxymethyl)-1-{[4-({[3-methyl-5-(1,3-oxazol-2-yl)phenyl]amino}methyl)phenyl]methyl}piperidine-3,4,5-triol]	> 100	907	440	44
COc1ccc(C#CCCCCCN2C[C@H](O)[C@@H](O)[C@H](O)[C@H]2CO)cc1 [Compound 1338, (2R,3R,4R,5S)-2-(hydroxymethyl)-1-[7-(4-methoxyphenyl)hept-6-yn-1-yl]piperidine-3,4,5-triol]	9.44	109	860	371
Nc1ccc(NCCc2ccccc2CCN2C[C@H](O)[C@@H](O)[C@H](O)[C@H]2CO)c([N+](=O)[O-])c1Cl [Compound 1239, (2R,3R,4R,5S)-1-[2-(2-{2-[(4-amino-3-chloro-2-nitrophenyl)amino]ethyl}phenyl)ethyl]-2-(hydroxymethyl)piperidine-3,4,5-triol]	0.114	108	1240	294
[N-]=[N+]=Nc1ccc(NCCN2CCN(CCN3C[C@H](O)[C@@H](O)[C@H](O)[C@H]3CO)CC2)c([N+](=O)[O-])c1 [Compound 1273, (2R,3R,4R,5S)-1-[2-(4-{2-[(4-azido-2-nitrophenyl)amino]ethyl}piperazin-1-yl)ethyl]-2-(hydroxymethyl)piperidine-3,4,5-triol]	2.98	548	15600	21600
OC[C@@H]1[C@@H](O)[C@H](O)[C@@H](O)CN1Cc1cnc(CNc2cc(-c3ncccn3)cc(C3CC3)c2)cn1 [Compound 1329, (2R,3R,4R,5S)-1-{[5-({[3-cyclopropyl-5-(pyrimidin-2-yl)phenyl]amino}methyl)pyrazin-2-yl]methyl}-2-(hydroxymethyl)piperidine-3,4,5-triol]	82.9	2550	50	675
O=[N+]([O-])c1cc(Br)ccc1NCc1ccc(CN2C[C@H](O)[C@@H](O)[C@H](O)[C@H]2CO)cc1 [Compound 1030, (2R,3R,4R,5S)-1-[(4-{[(4-bromo-2-nitrophenyl)amino]methyl}phenyl)methyl]-2-(hydroxymethyl)piperidine-3,4,5-triol]	32.3	< 1	135	< 1
[N-]=[N+]=Nc1ccc(NCCCCCCN2C[C@H](O)[C@@H](O)[C@H](O)[C@H]2CO)c(C(=O)O)c1 [Compound 1297, 5-azido-2-({6-[(2R,3R,4R,5S)-3,4,5-trihydroxy-2-(hydroxymethyl)piperidin-1-yl]hexyl}amino)benzoic acid]	3.52	97	452	800
Cc1cc(NCc2ccc(CN3C[C@H](O)[C@@H](O)[C@H](O)[C@H]3CO)cc2)cc(-n2ccnn2)c1 [Compound 1323, (2R,3R,4R,5S)-2-(hydroxymethyl)-1-{[4-({[3-methyl-5-(1H-1,2,3-triazol-1-yl)phenyl]amino}methyl)phenyl]methyl}piperidine-3,4,5-triol]	> 100	382	76	37
Cc1cc(Br)cc(NCc2ccc(CN3C[C@H](O)[C@@H](O)[C@H](O)[C@H]3CO)cc2)c1 [Compound 1024, (2R,3R,4R,5S)-1-[(4-{[(3-bromo-5-methylphenyl)amino]methyl}phenyl)methyl]-2-(hydroxymethyl)piperidine-3,4,5-triol]	21.1	–	221	14
CN(Cc1cccc(CN2C[C@H](O)[C@@H](O)[C@H](O)[C@H]2CO)c1)c1ccc(CN2CCCO2)cc1[N+](=O)[O-] [Compound 1020]	76.3	–	1160	129
